Assay results from paper PMC6269914, “In Vitro Evaluation of Novel Inhibitors against the NS2B-NS3 Protease of Dengue Fever Virus Type 4” (Molecules, 2013).

Target: DENV4 NS2B-NS3pro (Dengue virus type 4, UniProt Q2YHF0, DELINS1442-1474GGGGSGGGG)
Assay: In vitro inhibition assay of recombinant NS2B-NS3pro with fluorogenic AMC peptide substrate
Format: biochemical, dengue virus type 4 (DENV4)
Conditions: for Inhibition Activity: primary inhibition assay at a 100 μM concentration of inhibitors, Table S1; for Inhibition: inhibition activity at 100 μM, 1.65 µM AMC peptide substrate, Table 2

Sequence of DENV4 NS2B-NS3pro (Q2YHF0 1475-1660, added parts left off, stated change not applied): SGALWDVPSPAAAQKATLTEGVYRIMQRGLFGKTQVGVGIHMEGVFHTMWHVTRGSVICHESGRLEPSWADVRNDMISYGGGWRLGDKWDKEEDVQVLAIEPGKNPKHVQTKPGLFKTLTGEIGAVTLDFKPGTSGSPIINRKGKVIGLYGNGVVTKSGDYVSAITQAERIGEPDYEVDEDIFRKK

1-(4-(2,5-dimethylphenyl)piperazin-1-yl)-4-(10-methylbis([1,2,4]triazolo)[4,3-a:1',5'-c]quinazolin-3-yl)butan-1-one [Compound 3]
Inhibition Activity: 2.61%

1-(5-(4-(4-(5-chloro-2-methylphenyl)piperazine-1-carbonyl)piperidin-1-yl)-1,3,4-thiadiazol-2-yl)pyrrolidin-2-one [Compound 18]
Inhibition Activity: 0.15%

2-(1-isobutyl-5,5-dimethyl-3-(naphthalen-1-yl)-2-oxoimidazolidin-4-yl)-4-(naphthalen-1-yl)-1,2,4-oxadiazolidine-3,5-dione [Compound 16]
Inhibition Activity: 33.28%

2-(3-fluorophenyl)-7-((2-(3-fluorophenyl)-4-oxo-4H-benzo[d][1,3]oxazin-6-yl)methyl)-4H-benzo[d][1,3]oxazin-4-one [Compound 36]
Inhibition Activity: 34.33%

2-((4aR,5R,5aR,8aR,9S)-2,6,8-trioxo-3,10-diphenyl-2,3,4a,5,5a,6,8a,9,9a,10-decahydro-5,9-methanothiazolo[5',4':5,6]thiopyrano[2,3-f]isoindol-7(8H)-yl)acetic acid [Compound 34]
Inhibition Activity: 39.67%

3,3'-(ethane-1,2-diyl)bis(2-(((7-chloro-4-oxo-4H-pyrido[1,2-a]pyrimidin-2-yl)methyl)thio)quinazolin-4(3H)-one) [Compound 35]
Inhibition Activity: 48.66%

3-(((1-methyl-1H-tetrazol-5-yl)thio)methyl)-7-(2-(5-methyl-4-nitro-1H-pyrazol-1-yl)acetamido)-8-oxo-5-thia-1-azabicyclo[4.2.0]oct-2-ene-2-carboxylic acid [Compound 17]
Inhibition Activity: 23.01%

4-(2,6-bis(3-hydroxyphenyl)-1,3,5,7-tetraoxo-1,2,3,5,6,7-hexahydropyrrolo[3,4-f]isoindole-4-carbonyl)benzoic acid [Compound 1]
Inhibition Activity: 15.05%

4-((4aR,5R,5aR,8aR,9S)-10-(4-(tert-butyl)phenyl)-2,6,8-trioxo-2,3,4a,5,5a,6,8a,9,9a,10-decahydro-5,9-methanothiazolo[5',4':5,6]thiopyrano[2,3-f]isoindol-7(8H)-yl)butanoic acid [Compound 11]
Inhibition Activity: 12.46%

5-(5,6-dibromo-1,3-dioxohexahydro-1H-4,7-methanoisoindol-2(3H)-yl)-2-morpholinobenzoic acid [Compound 13]
Inhibition Activity: 5.55%

O=C1c2ccc(-n3c(=O)c4cc5c(=O)n(-c6ccc7c(c6)C(=O)N(c6ccccc6)C7=O)c(=O)c5cc4c3=O)cc2C(=O)N1c1ccccc1 [Compound 4, 2,6-bis(1,3-dioxo-2-phenylisoindolin-5-yl)pyrrolo[3,4-f]isoindole-1,3,5,7(2H,6H)-tetraone]
Inhibition Activity: 4.64%

Cc1nnc2c(Nc3cccc(C(=O)O)c3)nc3ccc(C(=O)c4ccccc4)cc3n12 [Compound 5, 3-((8-benzoyl-1-methyl-[1,2,4]triazolo[4,3-a]quinoxalin-4-yl)amino)benzoic acid]
Inhibition: 58.8% | Inhibition Activity: 58.83%

O=C(Nc1ccc(Br)cc1C(=O)c1ccccc1)c1cccc(Nc2nc(-c3ccccc3)c3cc(Br)ccc3n2)c1 [Compound 7, N-(2-benzoyl-4-bromophenyl)-3-((6-bromo-4-phenylquinazolin-2-yl)amino)benzamide]
Inhibition Activity: 21.31%

COc1cccc(-n2nc(C(=O)NC3CCCCCC3)c3ccccc3c2=O)c1 [Compound 9, N-cycloheptyl-3-(3-methoxyphenyl)-4-oxo-3,4-dihydrophthalazine-1-carboxamide]
Inhibition Activity: 23.33%

Cc1nc2sc(C(=O)c3ccc(-c4ccc(C(=O)c5sc6nc(C)c(C)c(C)c6c5N)cc4)cc3)c(N)c2c(C)c1C [Compound 10, [1,1'-biphenyl]-4,4'-diylbis((3-amino-4,5,6-trimethylthieno[2,3-b]pyridin-2-yl)methanone)]
Inhibition Activity: 7.59%

O=S(=O)(c1ccc(-c2csc(N3N=C(c4cccs4)CC3c3ccc(F)cc3)n2)cc1)N1CCCCC1 (stereo not shown) [Compound 12, 2-(5-(4-fluorophenyl)-3-(thiophen-2-yl)-4,5-dihydro-1H-pyrazol-1-yl)-4-(4-(piperidin-1-ylsulfonyl)phenyl)thiazole]
Inhibition: 85.2% | Inhibition Activity: 85.17%

Cc1cccc(-c2nc3nc(C)cc(Nc4ccc(CC(=O)O)cc4)n3n2)c1 [Compound 15, 2-(4-((5-methyl-2-(m-tolyl)-[1,2,4]triazolo[1,5-a]pyrimidin-7-yl)amino)phenyl)acetic acid]
Inhibition Activity: 17.36%

COC(=O)CSc1ncn(-c2nc(N3CCCCC3)nc(N3CCCCC3)n2)n1 [Compound 19, methyl 2-((1-(4,6-di(piperidin-1-yl)-1,3,5-triazin-2-yl)-1H-1,2,4-triazol-3-yl)thio)acetate]
Inhibition Activity: 10.28%

O=C1c2ccccc2C(=O)N1c1cccc(-c2csc(N3N=C(c4ccccc4)CC3c3ccccc3)n2)c1 (stereo not shown) [Compound 21, 2-(3-(2-(3,5-diphenyl-4,5-dihydro-1H-pyrazol-1-yl)thiazol-4-yl)phenyl)isoindoline-1,3-dione]
Inhibition Activity: 21.27%

Cc1nn(-c2ccccc2)c2c1nc(CCC(=O)NCCN1CCN(C)CC1)c(=O)n2C [Compound 24, 3-(3,7-dimethyl-6-oxo-1-phenyl-6,7-dihydro-1H-pyrazolo[3,4-b]pyrazin-5-yl)-N-(2-(4-methylpiperazin-1-yl)ethyl)propanamide]
Inhibition Activity: 29.46%

Nc1nonc1-c1nc2ccccc2n1Cc1ccc(Cn2c(-c3nonc3N)nc3ccccc32)cc1 [Compound 25, 4,4'-(1,1'-(1,4-phenylenebis(methylene))bis(1H-benzo[d]imidazole-2,1-diyl))bis(1,2,5-oxadiazol-3-amine)]
Inhibition Activity: 36.45%

O=C(O)CCCNc1cc(N2CCCCCC2)c2noc3c2c1C(=O)c1ccccc1-3 [Compound 27, 4-((3-(azepan-1-yl)-6-oxo-6H-anthra[1,9-cd]isoxazol-5-yl)amino)butanoic acid]
Inhibition: 82.5% | Inhibition Activity: 82.53%

O=C(NCCN1CCCCC1)c1cccc(Nc2ccc(-c3cccc(F)c3)nn2)c1 [Compound 29, 3-((6-(3-fluorophenyl)pyridazin-3-yl)amino)-N-(2-(piperidin-1-yl)ethyl)benzamide]
Inhibition: 66.6% | Inhibition Activity: 66.55%

C(=C\CSc1nnc(-c2ccccc2)c(-c2ccccc2)n1)/CSc1nnc(-c2ccccc2)c(-c2ccccc2)n1 [Compound 33, (E)-1,4-bis((5,6-diphenyl-1,2,4-triazin-3-yl)thio)but-2-ene]
Inhibition Activity: 40.52%

(5,7-dimethyl-6-(3-methylbenzyl)pyrazolo[1,5-a]pyrimidin-3-yl)(4-(2,5-dimethylphenyl)piperazin-1-yl)methanone [Compound 6]
Inhibition Activity: 8.61%

N2,N2-dimethyl-6-(((4-methyl-5-((2-methyl-5-nitro-1H-imidazol-1-yl)methyl)-4H-1,2,4-triazol-3-yl)thio)methyl)-1,3,5-triazine-2,4-diamine [Compound 31]
Inhibition Activity: 6.49%

N-(1,5-dimethyl-3-oxo-2-phenyl-2,3-dihydro-1H-pyrazol-4-yl)-2-((5,9-dimethyl-[1,2,4]triazolo[4,3-a]quinolin-1-yl)thio)acetamide [Compound 26]
Inhibition Activity: 28.11%
